Assay results published in patent US12037339B2, “Substituted imidazoles as GLP-1 receptor agonists” (Eccogene Inc., priority 2020, dated 2024).

Target: (Homo sapiens, UniProt P43220)
Assay: h-GLP-1 activity assay (cAMP HTRF, HEK293 cells with stable expression of human GLP-1)
Assay type: cell-based
Settings: relative EC50, 10 nM human GLP-1 set as 100% response, 30 min at 37° C.
In short: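 HEK293 cells stably expressing human GLP-1 receptor construct exposed to compound 30 min at 37 °C in buffer with 0.1% BSA and 0.5 mM IBMX; cAMP measured by HTRF against a cAMP standard curve. 10 nM human GLP-1 set as 100%; relative EC50 from 4-parameter fit.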

Chain of (Homo sapiens, UniProt P43220) (P43220 24-463): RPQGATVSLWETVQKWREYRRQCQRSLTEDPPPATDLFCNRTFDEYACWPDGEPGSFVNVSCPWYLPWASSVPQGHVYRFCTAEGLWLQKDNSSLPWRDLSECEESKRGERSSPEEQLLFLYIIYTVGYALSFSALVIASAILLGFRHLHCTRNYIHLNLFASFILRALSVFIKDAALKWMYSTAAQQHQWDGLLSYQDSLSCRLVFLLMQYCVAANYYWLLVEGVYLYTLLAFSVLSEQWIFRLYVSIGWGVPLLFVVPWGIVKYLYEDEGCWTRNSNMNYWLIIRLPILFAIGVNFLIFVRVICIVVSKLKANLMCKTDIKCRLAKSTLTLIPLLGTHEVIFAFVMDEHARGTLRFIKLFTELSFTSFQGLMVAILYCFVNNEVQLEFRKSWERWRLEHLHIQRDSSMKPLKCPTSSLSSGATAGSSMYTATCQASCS

SMILES	EC50 [nM]
C[C@H]1c2c(nn(-c3ccc(F)c(OC(F)(F)F)c3)c2-n2ccn(-c3ccc4c(cnn4C)c3F)c2=O)CCN1C(=O)c1cn2cc([C@@H]3CCOC(C)(C)C3)ccc2c1C1(c2noc(=O)[nH]2)CC1 (single isomer, unassigned) [Compound 80]	< 20
C[C@H]1c2c(nn(-c3ccc(F)c(OC(F)(F)F)c3)c2-n2ccn(-c3ccc4c(cnn4C)c3F)c2=O)CCN1C(=O)c1cc2cc([C@@H]3CCOC(C)(C)C3)ccn2c1C1(c2noc(=O)[nH]2)CC1 (single isomer, unassigned) [Compound 81]	< 20
Cc1cc(-n2nc3c(c2-n2ccn(-c4ccc5c(cnn5C)c4F)c2=O)[C@H](C)N(C(=O)c2nn4cc([C@H]5CCOC(C)(C)C5)ccc4c2C2(c4noc(=O)[nH]4)CC2)CC3)cc(C)c1F (single isomer, unassigned) [Compound 82]	20 to 100
Cc1cc(-n2nc3c(c2-n2ccn(-c4ccc5c(cnn5C)c4F)c2=O)[C@H](C)N(C(=O)c2nn4cc([C@@H]5CCOC(C)(C)C5)ccc4c2C2(c4noc(=O)[nH]4)CC2)CC3)cc(C)c1F (single isomer, unassigned) [Compound 83]	< 20
C[C@H]1c2c(nn(-c3ccc(F)c(C4CC4)c3)c2-n2ccn(-c3ccc4c(cnn4C)c3F)c2=O)CCN1C(=O)c1nn2cc([C@@H]3CCOC(C)(C)C3)ccc2c1C1(c2noc(=O)[nH]2)CC1 (single isomer, unassigned) [Compound 84]	< 20
C[C@H]1c2c(nn(-c3ccc(F)c(C4CC4)c3)c2-n2ccn(-c3ccc4c(cnn4C)c3F)c2=O)CCN1C(=O)c1c(C2(c3noc(=O)[nH]3)CC2)c2ccc([C@@H]3CCOC(C)(C)C3)cn2c1Cl (single isomer, unassigned) [Compound 85]	20 to 100
Cc1cc(-n2nc3c(c2-n2ccn(-c4ccc5c(cnn5C)c4F)c2=O)[C@H](C)N(C(=O)c2cn4cc([C@H]5CCOC6(CC6)C5)ccc4c2C2(c4noc(=O)[nH]4)CC2)CC3)cc(C)c1F (single isomer, unassigned) [Compound 86]	< 20
Cc1cc(-n2nc3c(c2-n2ccn(-c4ccc5c(cnn5C)c4F)c2=O)[C@H](C)N(C(=O)c2cn4cc([C@@H]5CCOC6(CC6)C5)ccc4c2C2(c4noc(=O)[nH]4)CC2)CC3)cc(C)c1F (single isomer, unassigned) [Compound 87]	< 20
C[C@H]1c2c(nn(-c3ccc(F)c(C4CC4)c3)c2-n2ccn(-c3ccc4c(cnn4C)c3F)c2=O)CCN1C(=O)c1c(Cl)c2cc([C@@H]3CCOC(C)(C)C3)ccn2c1C1(c2noc(=O)[nH]2)CC1 (single isomer, unassigned) [Compound 88]	> 100
C[C@H]1c2c(nn(-c3ccc(F)c(C4CC4)c3)c2-n2ccn(-c3ccc4c(cnn4C)c3F)c2=O)CCN1C(=O)c1cn2nc([C@H]3CCOC(C)(C)C3)ccc2c1C1(c2noc(=O)[nH]2)CC1 (single isomer, unassigned) [Compound 89]	20 to 100
C[C@H]1c2c(nn(-c3ccc(F)c(C4CC4)c3)c2-n2ccn(-c3ccc4c(cnn4C)c3F)c2=O)CCN1C(=O)c1cn2cc([C@@H]3CCOC(C)(C)C3)cc(F)c2c1C1(c2noc(=O)[nH]2)CC1 (single isomer, unassigned) [Compound 92]	< 20
C[C@H]1c2c(nn(-c3ccc(F)c(C4CC4)c3)c2-n2ccn(-c3ccc4c(cnn4C)c3F)c2=O)CCN1C(=O)c1cc2cc([C@H]3CCOC(C)(C)C3)c(F)cn2c1C1(c2noc(=O)[nH]2)CC1 (single isomer, unassigned) [Compound 93]	< 20
C[C@H]1c2c(nn(-c3ccc(F)c(C4CC4)c3)c2-n2ccn(-c3ccc4c(cnn4C)c3F)c2=O)CCN1C(=O)c1cc2cc([C@@H]3CCOC(C)(C)C3)c(F)cn2c1C1(c2noc(=O)[nH]2)CC1 (single isomer, unassigned) [Compound 94]	20 to 100
C[C@H]1c2c(nn(-c3ccc(F)c(C4CC4)c3)c2-n2ccn(-c3ccc4c(cnn4C)c3F)c2=O)CCN1C(=O)c1cc2c(F)c([C@H]3CCOC(C)(C)C3)ccn2c1C1(c2noc(=O)[nH]2)CC1 (single isomer, unassigned) [Compound 95]	> 100
C[C@H]1c2c(nn(-c3ccc(F)c(C4CC4)c3)c2-n2ccn(-c3ccc4c(cnn4C)c3F)c2=O)CCN1C(=O)c1cc2c(F)c([C@@H]3CCOC(C)(C)C3)ccn2c1C1(c2noc(=O)[nH]2)CC1 (single isomer, unassigned) [Compound 96]	< 20
C[C@H]1c2c(nn(-c3ccc(F)c(C4CC4)c3)c2-n2ccn(-c3ccc4c(cnn4C)c3F)c2=O)CCN1C(=O)c1nc2cc([C@H]3CCOC(C)(C)C3)ccn2c1C1(c2noc(=O)[nH]2)CC1 (single isomer, unassigned) [Compound 97]	> 100
C[C@H]1c2c(nn(-c3ccc(F)c(C4CC4)c3)c2-n2ccn(-c3ccc4c(cnn4C)c3F)c2=O)CCN1C(=O)c1nc2cc([C@@H]3CCOC(C)(C)C3)ccn2c1C1(c2noc(=O)[nH]2)CC1 (single isomer, unassigned) [Compound 98]	20 to 100
C[C@H]1c2c(nn(-c3ccc(F)c(C4CC4)c3)c2-n2ccn(-c3ccc4c(cnn4C)c3F)c2=O)CCN1C(=O)c1cc2cc([C@H]3CCOC(C)(C)C3)cnn2c1C1(c2noc(=O)[nH]2)CC1 (single isomer, unassigned) [Compound 99]	< 20
C[C@H]1c2c(nn(-c3ccc(F)c(C4CC4)c3)c2-n2ccn(-c3ccc4c(cnn4C)c3F)c2=O)CCN1C(=O)c1cc2cc([C@@H]3CCOC(C)(C)C3)cnn2c1C1(c2noc(=O)[nH]2)CC1 (single isomer, unassigned) [Compound 100]	20 to 100
C[C@H]1c2c(nn(-c3ccc(F)c(C4CC4)c3)c2-n2ccn(-c3ccc4c(cnn4C)c3F)c2=O)CCN1C(=O)c1cc2nc([C@H]3CCOC(C)(C)C3)ccn2c1C1(c2noc(=O)[nH]2)CC1 (single isomer, unassigned) [Compound 101]	> 100
C[C@H]1c2c(nn(-c3ccc(F)c(C4CC4)c3)c2-n2ccn(-c3ccc4c(cnn4C)c3F)c2=O)CCN1C(=O)c1cc2nc([C@@H]3CCOC(C)(C)C3)ccn2c1C1(c2noc(=O)[nH]2)CC1 (single isomer, unassigned) [Compound 102]	< 20
Cc1cc(-n2nc3c(c2-n2ccn(-c4ccc5c(cnn5C)c4F)c2=O)[C@H](C)N(C(=O)c2cn4cc(N5CCOC(C)(C)C5)ccc4c2C2(c4noc(=O)[nH]4)CC2)CC3)cc(C)c1F [Compound 1, (S)-3-(1-(6-(2,2-dimethylmorpholino)-2-(3-(3-(4-fluoro-1-methyl-1H-indazol-5-yl)-2-oxo-2,3-dihydro-1H-imidazol-1-yl)-2-(4-fluoro-3,5-dimethylphenyl)-4-methyl-4,5,6,7-tetrahydro-2H-pyrazolo[4,3-c]pyridine-5-carbonyl)indolizin-1-yl)cyclopropyl)-1,2,4-oxadiazol-5(4H)-one]	< 20
Cc1cc(-n2nc3c(c2-n2ccn(-c4ccc5c(cnn5C)c4F)c2=O)[C@H](C)N(C(=O)c2cn4cc(-c5ccnc(C(F)(F)F)c5)ccc4c2C2(c4noc(=O)[nH]4)CC2)CC3)cc(C)c1F [Compound 2, (S)-3-(1-(2-(3-(3-(4-fluoro-1-methyl-1H-indazol-5-yl)-2-oxo-2,3-dihydro-1H-imidazol-1-yl)-2-(4-fluoro-3,5-dimethylphenyl)-4-methyl-4,5,6,7-tetrahydro-2H-pyrazolo[4,3-c]pyridine-5-carbonyl)-6-(2-(trifluoromethyl)pyridin-4-yl)indolizin-1-yl)cyclopropyl)-1,2,4-oxadiazol-5(4H)-one]	< 20
